Measured values published in US20230002359A1, “PESTICIDALLY ACTIVE FUSED BICYCLIC HETEROAROMATIC COMPOUNDS” (priority 2019, published 2023).

Assays:
Type in all cases: in vivo
[1] = system: Chilo suppressalis (Striped Rice Stemborer); assay: Example B3: Chilo suppressalis (striped rice stemborer), artificial diet, L2 larvae; conditions: 144 h, application rate of 200 ppm, 6 days after infestation, L2 larvae, read-out: control in at least one of the three categories (mortality, anti-feedant effect, or growth inhibition)
Summary of the method: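 First, artificial diet was treated with aqueous solutions prepared from 10'000 ppm DMSO stocks; second, after drying, L2 larvae (6-8/well) were added; third, effects were assessed at 6 days against untreated controls, counting control when any of three categories was higher.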

[2] = system: Myzus persicae (Green Peach Aphid); assay: Example B6: Myzus persicae (green peach aphid) intrinsic activity, sucrose solution; conditions: 120 h, test rate of 12 ppm, 5 days after infestation, intrinsic activity, read-out: mortality
Summary of the method: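 Mortality was read 5 days after infestation. Aphids on pea seedlings fed through a stretched Parafilm membrane on inverted 24-well plates containing sucrose solution mixed with test compound, which was diluted from 10′000 ppm DMSO stock.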

[3] = system: Plutella xylostella (Diamondback Moth); assay: Example B9: Plutella xylostella (diamondback moth), artificial diet, eggs, 96-well; conditions: 216 h, application rate of 500 ppm, 9 days after infestation, read-out: control in mortality
Experimental: 96-well microtiter plates containing artificial diet were treated with aqueous test solutions, prepared from 10′000 ppm DMSO stock solutions, by a liquid handling robot. After drying, eggs (˜30 per well) were infested onto a netted lid which was suspended above the diet. The eggs hatch and L1 larvae move down to the diet. The samples were assessed for mortality 9 days after infestation.

[4] = system: Plutella xylostella (Diamond Back Moth); assay: Example B4: Plutella xylostella (diamond back moth), artificial diet, eggs, 24-well; conditions: 192 h, application rate of 200 ppm, 8 days after infestation, eggs, read-out: control in at least one of the two categories (mortality or growth inhibition)
Experimental: 24-well microtiter plates with artificial diet were treated with aqueous test solutions prepared from 10′000 ppm DMSO stock solutions by pipetting. After drying, Plutella eggs were pipetted through a plastic stencil onto a gel blotting paper and the plate was closed with it. The samples were assessed for mortality and growth inhibition in comparison to untreated samples 8 days after infestation.

[5] = system: Myzus persicae (Green Peach Aphid); assay: Example B5: Myzus persicae (green peach aphid) feeding/contact activity, sunflower leaf discs; conditions: foliar, 144 h, application rate of 200 ppm, 6 days after infestation
Experimental: Sunflower leaf discs were placed onto agar in a 24-well microtiter plate and sprayed with aqueous test solutions prepared from 10′000 ppm DMSO stock solutions. After drying, the leaf discs were infested with an aphid population of mixed ages. The samples were assessed for mortality 6 days after infestation.

[6] = system: Spodoptera littoralis (Egyptian Cotton Leaf Worm); assay: Example B7: Spodoptera littoralis (Egyptian cotton leaf worm), cotton leaf discs sprayed, L1 larvae; conditions: foliar, 72 h, application rate of 200 ppm, 3 days after infestation, L1 larvae, read-out: control in at least one of the three categories (mortality, anti-feedant effect, or growth inhibition)
Summary of the method: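 Spray application onto agar-supported cotton leaf discs used aqueous solutions derived from 10′000 ppm DMSO stocks. Once dry, discs were infested with five L1 larvae and evaluated after 3 days for mortality, anti-feeding and growth inhibition relative to untreated controls.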

[7] = system: Diabrotica Balteata (Corn Root Worm); assay: Example B1: Diabrotica balteata (corn root worm), maize sprouts sprayed, L2 larvae; conditions: 96 h, application rate of 200 ppm, 4 days after infestation, L2 larvae, read-out: control in at least one of the two categories (mortality or growth inhibition)
Summary of the method: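 Larvae at L2 stage, 6 to 10 per well, feed on dried, spray-treated maize sprouts set on agar. Evaluation after 4 days compares mortality and growth inhibition with untreated samples.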

[8] = system: Spodoptera littoralis (Egyptian Cotton Leaf Worm); assay: Example B8: Spodoptera littoralis (Egyptian cotton leaf worm), uptake by lettuce roots from agar, eggs; conditions: 144 h, test rate of 12.5 ppm, 6 days after infestation, compound absorbed by lettuce roots, read-out: control in at least one of the three categories (mortality, anti-feeding, or growth inhibition)
Text: Test compounds were applied by pipette from 10′000 ppm DMSO stock solutions into 24-well plates and mixed with agar. Lettuce seeds were placed onto the agar and the multi well plate was closed by another plate which contained also agar. After 7 days the compound was absorbed by the roots and the lettuce grew into the lid plate. The lettuce leaves were then cut off into the lid plate. Spodoptera eggs were pipetted through a plastic stencil onto a humid gel blotting paper and the lid plate was closed with it. The samples were assessed for mortality, anti-feedant effect and growth inhibition in comparison to untreated samples 6 days after infestation.
The following compounds gave an effect of at least 80% control in at least one of the three categories (mortality, anti-feeding, or growth inhibition) at a test rate of 12.5 ppm: P.58, P.93, P.94, P.95, P.130, P.254, P.256.

[9] = system: Euschistus heros (Neotropical Brown Stink Bug); assay: Example B2: Euschistus heros (neotropical brown stink bug), soybean leaves sprayed, N2 nymphs; conditions: 120 h, application rate of 200 ppm, 5 days after infestation, N2 nymphs, read-out: control in at least one of the two categories (mortality or growth inhibition)
Experimental: Soybean leaves on agar in 24-well microtiter plates were sprayed with aqueous test solutions prepared from 10′000 ppm DMSO stock solutions. After drying the leaves were infested with N2 nymphs. The samples were assessed for mortality and growth inhibition in comparison to untreated samples 5 days after infestation.

CC(c1ncnn1-c1ccc(C#N)cn1)N(C)c1ncnc2c(C(F)(F)F)cc(Br)cc12 (centres unmarked) [P.52, 6-[5-[1-[[6-bromo-8-(trifluoromethyl)quinazolin-4-yl]-methyl-amino]ethyl]-1,2,4-triazol-1-yl]pyridine-3-carbonitrile]
≥ 80%: percent control (mortality, anti-feedant effect or growth inhibition) at 200 ppm [1] | mortality at 12 ppm [2] | mortality at 500 ppm [3] | percent control (mortality or growth inhibition) at 200 ppm [4] | mortality at 200 ppm [5] | percent control (mortality, anti-feedant effect or growth inhibition) at 200 ppm [6] | percent control (mortality or growth inhibition) at 200 ppm [7]

CC(c1ncnn1-c1ncccn1)N(C)c1ncnc2c(C(F)(F)F)cc(C(F)(F)F)cc12 (centres unmarked) [P.58, N-methyl-N-[1-(2-pyrimidin-2-yl-1,2,4-triazol-3-yl)ethyl]-6,8-bis(trifluoromethyl)quina-zolin-4-amine]
≥ 80%: percent control (mortality, anti-feeding or growth inhibition) at 12.5 ppm [8] | mortality at 500 ppm [3]

C[C@H](Nc1ncnc2c(OC(F)F)cc(Cl)cc12)c1ncnn1-c1ncccn1 [P.93, 6-chloro-8-(difluoromethoxy)-N-[(1S)-1-(2-pyrimidin-2-yl-1,2,4-triazol-3-yl)ethyl]quinazolin-4-amine]
≥ 80%: percent control (mortality, anti-feedant effect or growth inhibition) at 200 ppm [1] | percent control (mortality, anti-feeding or growth inhibition) at 12.5 ppm [8] | mortality at 12 ppm [2] | mortality at 500 ppm [3] | percent control (mortality or growth inhibition) at 200 ppm [4] | percent control (mortality, anti-feedant effect or growth inhibition) at 200 ppm [6] | percent control (mortality or growth inhibition) at 200 ppm [7] | percent control (mortality or growth inhibition) at 200 ppm [9]

C[C@H](Nc1ncnc2c(Cl)cc(OC(F)F)cc12)c1ncnn1-c1ncccn1 [P.94, 8-chloro-6-(difluoromethoxy)-N-[(1S)-1-(2-pyrimidin-2-yl-1,2,4-triazol-3-yl)ethyl]quinazolin-4-amine]
≥ 80%: percent control (mortality, anti-feedant effect or growth inhibition) at 200 ppm [1] | percent control (mortality, anti-feeding or growth inhibition) at 12.5 ppm [8] | mortality at 12 ppm [2] | mortality at 500 ppm [3] | percent control (mortality or growth inhibition) at 200 ppm [4] | mortality at 200 ppm [5] | percent control (mortality or growth inhibition) at 200 ppm [7]

C[C@H](Nc1ncnc2c(I)cc(C(F)(F)F)cc12)c1ncnn1-c1ncccn1 [P.95, 8-iodo-N-[(1S)-1-(2-pyrimidin-2-yl-1,2,4-triazol-3-yl)ethyl]-6-(trifluoromethyl)quinazolin-4-amine]
≥ 80%: percent control (mortality, anti-feedant effect or growth inhibition) at 200 ppm [1] | percent control (mortality, anti-feeding or growth inhibition) at 12.5 ppm [8] | mortality at 12 ppm [2] | mortality at 500 ppm [3] | percent control (mortality or growth inhibition) at 200 ppm [4] | mortality at 200 ppm [5] | percent control (mortality, anti-feedant effect or growth inhibition) at 200 ppm [6] | percent control (mortality or growth inhibition) at 200 ppm [7] | percent control (mortality or growth inhibition) at 200 ppm [9]

CC(Nc1ncnc2c(C(F)(F)F)cc(Cl)cc12)c1nccnc1-c1ncccn1 (centres unmarked) [P.130, 6-chloro-N-[1-(3-pyrimidin-2-ylpyrazin-2-yl)ethyl]-8-(trifluoromethyl)quinazolin-4-amine]
≥ 80%: percent control (mortality, anti-feedant effect or growth inhibition) at 200 ppm [1] | percent control (mortality, anti-feeding or growth inhibition) at 12.5 ppm [8] | mortality at 12 ppm [2] | percent control (mortality or growth inhibition) at 200 ppm [4] | mortality at 200 ppm [5] | percent control (mortality, anti-feedant effect or growth inhibition) at 200 ppm [6] | percent control (mortality or growth inhibition) at 200 ppm [7]

C[C@@H](c1ncnn1-c1ccc(C#N)cn1)N(C)c1ccnc2c(Br)cc(C(F)(F)F)cc12 [P.254, 6-[5-[(1S)-1-[[8-bromo-6-(trifluoromethyl)-4-quinolyl]-methyl-amino]ethyl]-1,2,4-triazol-1-yl]pyridine-3-carbonitrile]
≥ 80%: percent control (mortality, anti-feedant effect or growth inhibition) at 200 ppm [1] | percent control (mortality, anti-feeding or growth inhibition) at 12.5 ppm [8] | percent control (mortality or growth inhibition) at 200 ppm [4] | percent control (mortality, anti-feedant effect or growth inhibition) at 200 ppm [6] | percent control (mortality or growth inhibition) at 200 ppm [7]

C[C@H](Nc1ccnc2c(Br)cc(C(F)(F)F)cc12)c1ncnn1-c1ccc(C#N)cn1 [P.256, 6-[5-[(1S)-1-[[8-bromo-6-(trifluoromethyl)-4-quinolyl]amino]ethyl]-1,2,4-triazol-1-yl]pyridine-3-carbonitrile]
≥ 80%: percent control (mortality, anti-feedant effect or growth inhibition) at 200 ppm [1] | percent control (mortality, anti-feeding or growth inhibition) at 12.5 ppm [8] | percent control (mortality or growth inhibition) at 200 ppm [4] | percent control (mortality, anti-feedant effect or growth inhibition) at 200 ppm [6] | percent control (mortality or growth inhibition) at 200 ppm [7]
